According to patent US20240360089A1, “Metabolically Stable HDAC Inhibitors with Trifluoromethylpyruvamide as Metal-Binding Group” (The University of Toledo, priority 2023, published 2024):
Read-outs that look alike come from different tables or passages of the source.

Legend:
HCT116 cells = experiment: Growth inhibition / cell viability assay (methylene blue), HCT116; assay type: cell-based, human; settings: for IC50: Homo sapiens, HCT-116
Experimental: (§1) Cell feasibility was examined using methylene blue staining. Cells were plated at a rate of 5000/well in 96 well plates (n=3) respectively and treated the next day. Three days after treatment, cells were fixed/stained in methylene blue saturated in 50% ethanol for 30 min at room temperature. Excessive water was used to wash off extra dye from the plates.

[1] = S9 fraction metabolic stability assay (LC-ESI-MS); assay type: in vitro ADME; settings: human liver S9 fraction
Source text: Previous studies established that trifluoromethyl ketones are metabolically unstable and reduced in vivo to trifluoromethyl alcohols (TFMAs). This metabolic reduction caused a major loss in activity. […] It was believed that in TFPAs, the hydrate form of the ketone is stabilized compared to TFMKs, and is therefore less susceptible to reductive metabolism. […] Metabolic stability studies are primarily conducted using liver microsomal assays, as the predominant cytochrome P450 enzymes present in them are responsible for the metabolism of most xenobiotics in the human body. However, P450 transformations are mostly oxidative in nature, precluding their use to assess the stability of ketone drugs against reductive metabolism. […] Thus, using a liver extract containing both cytosol and microsomal enzymes would be more appropriate for this assay. This was accomplished by using the S9 fraction, which is basically the supernatant obtained from centrifugation of hepatocytes at 9000 g and contains both liver cytosol and microsomal enzymes. LC-ESI-MS was used to monitor the reduction of TFPA 60 over time and it was compared with TFMK 91.
A protocol similar to the one previously employed by others using Human Liver S9 fractions instead of liver microsomes was used for the metabolism studies. The assay was initiated by incubating a mixture of the substrate (0.02 mM), buffer (0.1M), and NADPH (1 mM) at 37° C. for ten minutes, followed by addition of the S9 fraction (0.5 mg) to the mixture and gentle mixing. The total volume of the reaction mixture was maintained at 1 mL. […] The reactions in the aliquots were terminated by adding an equal volume of ethyl acetate, mixing thoroughly, and transferring into micro centrifuge tubes. They were vortexed for 2 minutes and then subjected to centrifugation at 10,000×g for 15 minutes to remove the proteins. The top organic layers were extracted and evaporated under reduced pressure. The organic residues from the aliquots were dissolved in methanol first, then diluted 1:1 with water, and analyzed using LC-ESI-MS. A 450 μL aliquot of compound 60 with concentration of 0.02 mM contains 9 nanomoles, which after evaporation, was dissolved in 500 μL of methanol to give 18 μM in concentration of 60. This was diluted 1:1 with water to give a final concentration of 9 μM, which was used for LC-ESI-MS. Similarly, 200 μL of TFMK 91 at a concentration of 0.02 mM contains 4 nanomoles, which after removing ethyl acetate, and dissolving in 250 μL of methanol gives 16 μM concentration of 91. This was diluted 1:1 with water to give 8 μM final concentration for LC-ESI-MS.
The solvent flow rate was 0.2 mL/min, and the sample injection volume was 20 μL. […]

[2] = stated in the method as reason for the sampling interval; cited from earlier work
[3] = system: U2OS osteosarcoma cell line; experiment: Growth inhibition assay (methylene blue), U2OS; assay type: cell-based; settings: Homo sapiens, Table 4, unit inferred
Experimental: as §1

[4] = system: MDA-MB-231 breast cancer cell line; experiment: Growth inhibition assay (methylene blue), MDA-MB-231; assay type: cell-based; settings: Homo sapiens, Table 4, unit inferred
Experimental: as §1

[5] = system: HT1080 fibrosarcoma cell line; experiment: Growth inhibition assay (methylene blue), HT1080; assay type: cell-based; settings: Homo sapiens, HT-1080, Table 4, unit inferred
Experimental: as §1

[6] = system: HeLa cervical cancer cell line; experiment: Growth inhibition assay (methylene blue), HeLa; assay type: cell-based; settings: Homo sapiens, Table 4, unit inferred
Experimental: as §1

sixty cell lines [7] = experiment: NCI 60 cell five-dose assay; assay type: cell-based; settings: Total Growth Inhibition
[8] = system: MDA-MB-468 breast cancer cell line; experiment: Growth inhibition assay (methylene blue), MDA-MB-468; assay type: cell-based; settings: Homo sapiens, Table 4, unit inferred
Experimental: as §1

[9] = system: NCI-H522 lung cancer cell line; experiment: Growth inhibition / cell viability assay (methylene blue), NCI-H522; assay type: cell-based; settings: Homo sapiens
Experimental: as §1

sixty cell lines [10] = experiment: NCI 60 cell one-dose assay; assay type: cell-based; settings: result in words
PARP1 = experiment: Western blot analysis of PARP1 cleavage in HCT116 cells; assay type: cell-based, human; settings: HCT116 cells treated for 24 h; measure of caspase dependent cell death
Experimental: FIG. 13: Western blot analysis of PARP1 cleavage. HCT116 cells were treated with compounds 83, 84, and 85 at the indicated concentrations for 24 hr. Western blots were probed with an antibody that recognizes a cleaved form of PARP (Cell Signaling Technology 5626) as a measure of caspase dependent cell death.
To determine whether the compounds herein induced apoptosis, the enzyme Poly (ADP ribose) polymerase 1 (PARP1) was analyzed by western blotting. Caspase-dependent proteolytic cleavage of PARP1 is one of the hall marks of apoptosis and antibodies that specifically recognize the cleavage products are available. […] HCT116 cells were treated with compounds 83, 84, and 85 for 24 h.
(§2) NCI-H522 cell pellets obtained were lysed using lysis buffer containing 50 mM Tris (pH 7.4), 150 mM NaCl, 0.5% NP-40, (supplemented with 1 μg/ml aprotinin, 2 μg/ml leupeptin, 1 μg/ml pepstatin A, 1 mM DTT, and […]) for 30 minutes on ice and centrifuged at 13×10^3 g for 25 minutes at 4° C. The protein levels of the obtained lysates were normalized using BCA Protein Assay Kit (Pierce) and separated by SDS-polyacrylamide gel electrophoresis (12.5% acrylamide). Transfer to polyvinylidene difluoride membranes (Millipore) was followed by obstruction of membranes with blocking buffer containing 5% (w/v) non-fat dry milk dissolved in PBST [1×PBS containing 0.05% (v/v) Tween 20] for 1 hour at room temperature. Membranes were then incubated with corresponding primary antibodies overnight at 4° C. The membranes were then washed (3×15 min each) with PBST and incubated with secondary antibodies conjugated to horse-radish peroxidase, obtained from Biorad, and used at a dilution of 1:10,000. Bound antibodies were detected using enhanced chemiluminescence (Biorad).

[11] = system: acetyl-H3 and pan-acetyl-lysine; experiment: Hyperacetylation assay by western blot; assay type: cell-based, human; settings: […], 5, and 10 μM, dose dependent
Experimental: The hallmark of HDAC inhibition is the hyperacetylation of several proteins which are substrates for HDACs. Thus, histone H3 hyperacetylation assay of some active compounds was carried out by western blot using antibodies for Histone H3 and pan-acetyl lysine.
as §2

RPE cells = experiment: Cell survival assay, normal cell line RPE; assay type: cell-based; settings: Homo sapiens, FIG. 14A, maximum 30 μM
Source text: (§3) This reaffirms the selectivity of TFPAs for cancer cells over normal cells.
(§4) HCT116 human colon cancer cells, NCI-H522 human lung cancer cells, HT1080 fibrosarcoma cells, HeLa cervical cancer cells, U2OS osteosarcoma cells, MDA-MB-231 and MDA-MB-468 breast cancer cells, WI38 diploid human cell line, and human retinal pigment epithelial RPE cells were preserved in Dulbecco's Modified Eagle's medium (Mediatech, Inc.) supplemented with 10% calf serum (Atlanta Biologicals) or 10% fetal bovine serum (Gemini Bio-Products #100-106) and 1000 U/ml of both Penicillin and Streptomycin (Mediatech, Inc.) at 37° C. with 5% CO2. Cell feasibility was examined using methylene blue staining. Cells were plated at a rate of 5000/well in 96 well plates (n=3) respectively and treated the next day. Three days after treatment, cells were fixed/stained in methylene blue saturated in 50% ethanol for 30 min at room temperature. Excessive water was used to wash off extra dye from the plates.

WI38 cells = experiment: Cell survival assay, normal cell line WI38; assay type: cell-based; settings: Homo sapiens, WI-38, FIG. 14A, maximum 30 μM
Source text: as §3, §4

[12] = cap group SAR, HCT116 cell line, maximum concentration of 40 μM, read-out: IC50
[13] = Table 4, growth inhibition, unit inferred, read-out: IC50 H522

Row | Structure (SMILES) | IC50 (HCT116 cells; [12]) | IC50 [3] | IC50 [4] | IC50 [5] | IC50 [8] | IC50 [9, 13] | TGI (sixty cell lines [7]) | PARP1 cleavage (cleaved PARP1) (PARP1) | also measured
1 | O=C(CCCCCCC(=O)C(F)(F)F)Nc1ccccc1 [Compound 91, reference compound] | 10100 nM |  |  |  |  |  |  |  | time to complete disappearance (metabolic reduction) of parent M+1 peak ([1]; NADPH, 37° C., LC-ESI-MS, aliquots every 15 minutes): ≤ 15 min; metabolic reduction to the alcohol ([1]; result in words): quantitative biological reduction; half-life [2]: less than 30 minutes
2 | COc1ccc(-c2cnc(NC(=O)CCCCCCNC(=O)C(O)(O)C(F)(F)F)s2)cc1 [Compound 84, N-(5-(4-methoxyphenyl)thiazol-2-yl)-7-(3,3,3-trifluoro-2,2-dihydroxypropanamido)heptanamide] |  |  |  |  |  |  | 8510 nM | Absence of PARP1 cleavage | cytostatic / cytotoxic activity in NCI 60 assays (sixty cell lines [10]): cytotoxic effects; levels of acetylated H3 [11]: increased levels; levels of pan-acetyl-lysine [11]: increased levels

The next lines start with results.

Row | IC50 (HCT116 cells; [12]) | IC50 [3] | IC50 [4] | IC50 [5] | IC50 [8] | IC50 [9, 13] | Structure (SMILES) | TGI (sixty cell lines [7]) | PARP1 cleavage (cleaved PARP1) (PARP1) | also measured
3 | 2370 nM | 1410 ± 180 nM | 1830 ± 350 nM | 2650 ± 210 nM | 1310 ± 180 nM | 2860 ± 360 nM | O=C(CCCCCCNC(=O)C(O)(O)C(F)(F)F)Nc1nc2ccccc2s1 [Compound 61, N-(benzo[d]thiazol-2-yl)-7-(3,3,3-trifluoro-2,2-dihydroxypropanamido)heptanamide] | 21370 nM |  | IC50 [6]: 1520 ± 230 nM
4 | 2180 nM | 3290 ± 460 nM | 810 ± 100 nM | 2280 ± 470 nM | 3650 ± 110 nM | 3230 ± 410 nM | COc1ccc2sc(NC(=O)CCCCCCNC(=O)C(O)(O)C(F)(F)F)nc2c1 [Compound 83, N-(5-methoxybenzo[d]thiazol-2-yl)-7-(3,3,3-trifluoro-2,2-dihydroxypropanamido)heptanamide] | 12300 nM | Dose-dependent elevation of cleaved PARP1 was detectable | 
5 | 4520 nM |  |  |  |  |  | COc1ccc(NC(=O)CCCCCCNC(=O)C(O)(O)C(F)(F)F)cc1 [Compound 55, N-(4-methoxyphenyl)-7-(3,3,3-trifluoro-2,2-dihydroxypropanamido)heptanamide] |  |  | IC50 (RPE cells): > 30000 nM; IC50 (HCT116 cells; cancer vs normal cells study, FIG. 14A, maximum 30 μM, read-out: IC50 HCT116): 3130 nM; cell survival HCT116 (HCT116 cells; maximum concentration of 30 μM, FIG. 14B): < 20%; IC50 (WI38 cells): > 30000 nM; IC50 ([9]; cancer vs normal cells study, FIG. 14A, maximum 30 μM, read-out: IC50 NCI-H522): 8050 nM
